Usually MIC stands for the lowest concentration that inhibits growth of the organism. Read a high MIC as a less susceptible organism.

The text below walks through data of PMC8005375, “Massiliamide, a cyclic tetrapeptide with potent tyrosinase inhibitory properties from the Gram-negative bacterium Massilia albidiflava DSM 17472^T” (The Journal of Antibiotics, 2020).

One data set relates to E. faecium BM 4147-1. The note with it: cation-adjusted Mueller-Hinton medium, twofold serial dilution (CLSI), 5 × 10^5 CFU per mL, overnight, 37°C. As for the experimental part: (§1) The minimal inhibitory concentration (MIC) was determined in a cation-adjusted Mueller-Hinton medium that contains casein, beef extract and starch by using a twofold serial dilution method according to the standards and guidelines of the Clinical and Laboratory Standards Institute (CLSI). In brief, a twofold serial dilution of the test compound was prepared in microtiter plates and seeded using a final inoculum of bacteria of 5 × 10^5 colony-forming units per mL. […] The strain panel included representative species of nosocomial pathogens, which are known as “ESKAPE” bacteria. Specifically, the following strains were used: Enterococcus faecium BM 4147–1, Staphylococcus aureus ATCC 29213, Klebsiella pneumoniae ATCC 12657, Acinetobacter baumannii 09987, Pseudomonas aeruginosa ATCC 27853 and Enterobacter aerogenes ATCC 13048. Bacillus subtilis 168 and Escherichia coli ATCC 25922 were used as further reference strains. The ATCC strains were provided by the American Type Culture Collection. A. baumannii 09987 was obtained from the University of Bonn, Germany.

The next data set concerns A. baumannii 09987. The note with it: cation-adjusted Mueller-Hinton medium, twofold serial dilution (CLSI), 5 × 10^5 CFU per mL, overnight, 37°C. The protocol:
as §1

Another data set has as its system K. pneumonia ATCC 12657. The note with it: cation-adjusted Mueller-Hinton medium, twofold serial dilution (CLSI), 5 × 10^5 CFU per mL, overnight, 37°C. As for the experimental part: as §1
A further data set has as its system E. aerogenes ATCC 13048. The note with it: cation-adjusted Mueller-Hinton medium, twofold serial dilution (CLSI), 5 × 10^5 CFU per mL, overnight, 37°C. The protocol:
as §1

The next data set has as its system E. coli ATCC 25922. The note with it: cation-adjusted Mueller-Hinton medium, twofold serial dilution (CLSI), 5 × 10^5 CFU per mL, overnight, 37°C. The protocol:
as §1

The test system of data set [1] is strain panel of "ESKAPE" bacteria, Bacillus subtilis 168 and Escherichia coli ATCC 25922. The note with it: broth microdilution, up to the highest concentration tested (64 µg ml^−1). The protocol: as §1
In general terms: Dilution methods test growth across graded concentrations, often in twofold steps.

The subject of another data set is P. aeruginosa ATCC 27853. The note with it: cation-adjusted Mueller-Hinton medium, twofold serial dilution (CLSI), 5 × 10^5 CFU per mL, overnight, 37°C. The protocol:
as §1

In a further data set the test system is B. subtilis 168. The note with it: cation-adjusted Mueller-Hinton medium, twofold serial dilution (CLSI), 5 × 10^5 CFU per mL, overnight, 37°C. The protocol: as §1
The target in another data set is tyrosinase (Agaricus bisporus, UniProt C7FF04). Nature of the data set: Tyrosinase inhibition assay (kit MAK257). The note with it: comparison of IC50 values with arbutin and kojic acid. In kind it is biochemical. As for the experimental part: In brief, 20 µL massiliamide (1) with various concentrations (0.05–5 µM) was added into 50 µL tyrosinase enzyme solutions that contained 48 µL MAK257A buffer and 2 µL of tyrosinase. The mixture was then incubated for 10 min at 25°C, followed by the addition of 30 µL substrate solution, containing 23 µL MAK257A buffer, 2 µL tyrosinase substrate, and 5 µL tyrosinase enhancer. The final reaction mixture was then homogenized by shaking and immediately monitored at 510 nm using a Tecan Infinite 200 Pro microplate reader, applying the kinetic mode for 30-60 min. […] Each measurement was conducted in three independent replications.
Chain of tyrosinase (C7FF04 whole entry): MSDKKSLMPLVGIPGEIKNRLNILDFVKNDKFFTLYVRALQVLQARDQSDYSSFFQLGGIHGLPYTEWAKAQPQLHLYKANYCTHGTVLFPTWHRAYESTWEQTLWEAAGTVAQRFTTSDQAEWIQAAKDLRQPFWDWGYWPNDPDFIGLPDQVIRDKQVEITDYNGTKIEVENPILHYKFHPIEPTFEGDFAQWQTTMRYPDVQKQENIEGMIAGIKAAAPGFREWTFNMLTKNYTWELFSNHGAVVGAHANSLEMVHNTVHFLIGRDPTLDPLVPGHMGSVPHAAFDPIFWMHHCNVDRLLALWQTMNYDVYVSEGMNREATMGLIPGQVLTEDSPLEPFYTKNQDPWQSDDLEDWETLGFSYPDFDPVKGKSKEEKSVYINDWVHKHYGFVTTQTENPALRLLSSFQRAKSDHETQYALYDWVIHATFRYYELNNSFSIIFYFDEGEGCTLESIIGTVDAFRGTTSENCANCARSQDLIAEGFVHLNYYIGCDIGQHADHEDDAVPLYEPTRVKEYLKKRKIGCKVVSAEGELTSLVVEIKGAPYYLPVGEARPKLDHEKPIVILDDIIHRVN

A further data set relates to HeLa cell line. The note with it: HeLa cell line at 64 µg ml^−1; resazurin assay. The protocol: The cytotoxicity test against the HeLa human cervical carcinoma cell line was performed in RPMI cell culture medium supplemented with 10% fetal bovine serum using the 7-hydroxy-3H-phenoxazin-3-one-10-oxide (resazurin) assay. A twofold serial dilution of the test compounds was prepared in duplicates in a microtiter plate and seeded with trypsinized HeLa cells to a final cell concentration of 1 × 10^4 cells per well. After 24 h incubation at 37°C, 5 % CO2, 95% relative humidity, resazurin was added at a final concentration of 200 µM, and cells were again incubated overnight. Cell viability was assessed by determining the reduction of resazurin to the fluorescent resorufin. Fluorescence was measured in a TECAN M200 reader at an excitation wavelength of 560 nm and an emission wavelength of 600 nm in relation to the untreated control.
For orientation: The colour change of resazurin is a common sign of viable cells or microbes.

The subject of a further data set is S. aureus ATCC 2921. The note with it: cation-adjusted Mueller-Hinton medium, twofold serial dilution (CLSI), 5 × 10^5 CFU per mL, overnight, 37°C.

SMILES strings stand for the structures. Square brackets hold non-standard residues; d marks the D form. Peptide text beside a SMILES is read from it.

Experimental for S. aureus ATCC 2921: The minimal inhibitory concentration (MIC) was determined in a cation-adjusted Mueller-Hinton medium that contains casein, beef extract and starch by using a twofold serial dilution method according to the standards and guidelines of the Clinical and Laboratory Standards Institute (CLSI) [10]. In brief, a twofold serial dilution of the test compound was prepared in microtiter plates and seeded using a final inoculum of bacteria of 5 × 10^5 colony-forming units per mL.

`CC(C)[C@H]1NC(=O)[C@@H]2CCCN2C(=O)[C@@H](Cc2ccc(O)cc2)NC(=O)[C@@H]2CCCN2C1=O` [Massiliamide (1)] (cyclo(P[dY]P[dV])): the MIC against E. faecium BM 4147-1, against A. baumannii 09987, in the data set with K. pneumonia ATCC 12657, against E. aerogenes ATCC 13048, in the data set on E. coli ATCC 25922 and in the data set with P. aeruginosa ATCC 27853 was more than 64 µg/mL in each case. Further, the MIC against B. subtilis 168 and in the data set with S. aureus ATCC 2921 was more than 64 µg/mL in each case. Further, the “Antimicrobial activity (in words)” value in data set [1] was “inactive up to the highest concentration tested”. Also, on tyrosinase, the “Tyrosinase inhibition compared with positive controls (in words)” value is “surpassed readily the activities of the positive controls arbutin and kojic acid”. The “Cytotoxicity (in words)” value in the data set on HeLa cell line was “no cytotoxicity”.
